We go through two molecules from publication PMC12503911, “Cytotoxicity of Atropisomeric [1,1′‐Binaphthalene]‐2,2′‐Diamines (BINAM) and Analogs in Human Cancer Cells: Enantioselectivity, Structure–Activity Relationships, and Mechanism” (Chemmedchem, 2025).

The target of assay [1] is T1, ASK1 (Homo sapiens, UniProt Q99683).
T1 construct: gene MAP3K5
T1 sequence (Q99683 1-1374): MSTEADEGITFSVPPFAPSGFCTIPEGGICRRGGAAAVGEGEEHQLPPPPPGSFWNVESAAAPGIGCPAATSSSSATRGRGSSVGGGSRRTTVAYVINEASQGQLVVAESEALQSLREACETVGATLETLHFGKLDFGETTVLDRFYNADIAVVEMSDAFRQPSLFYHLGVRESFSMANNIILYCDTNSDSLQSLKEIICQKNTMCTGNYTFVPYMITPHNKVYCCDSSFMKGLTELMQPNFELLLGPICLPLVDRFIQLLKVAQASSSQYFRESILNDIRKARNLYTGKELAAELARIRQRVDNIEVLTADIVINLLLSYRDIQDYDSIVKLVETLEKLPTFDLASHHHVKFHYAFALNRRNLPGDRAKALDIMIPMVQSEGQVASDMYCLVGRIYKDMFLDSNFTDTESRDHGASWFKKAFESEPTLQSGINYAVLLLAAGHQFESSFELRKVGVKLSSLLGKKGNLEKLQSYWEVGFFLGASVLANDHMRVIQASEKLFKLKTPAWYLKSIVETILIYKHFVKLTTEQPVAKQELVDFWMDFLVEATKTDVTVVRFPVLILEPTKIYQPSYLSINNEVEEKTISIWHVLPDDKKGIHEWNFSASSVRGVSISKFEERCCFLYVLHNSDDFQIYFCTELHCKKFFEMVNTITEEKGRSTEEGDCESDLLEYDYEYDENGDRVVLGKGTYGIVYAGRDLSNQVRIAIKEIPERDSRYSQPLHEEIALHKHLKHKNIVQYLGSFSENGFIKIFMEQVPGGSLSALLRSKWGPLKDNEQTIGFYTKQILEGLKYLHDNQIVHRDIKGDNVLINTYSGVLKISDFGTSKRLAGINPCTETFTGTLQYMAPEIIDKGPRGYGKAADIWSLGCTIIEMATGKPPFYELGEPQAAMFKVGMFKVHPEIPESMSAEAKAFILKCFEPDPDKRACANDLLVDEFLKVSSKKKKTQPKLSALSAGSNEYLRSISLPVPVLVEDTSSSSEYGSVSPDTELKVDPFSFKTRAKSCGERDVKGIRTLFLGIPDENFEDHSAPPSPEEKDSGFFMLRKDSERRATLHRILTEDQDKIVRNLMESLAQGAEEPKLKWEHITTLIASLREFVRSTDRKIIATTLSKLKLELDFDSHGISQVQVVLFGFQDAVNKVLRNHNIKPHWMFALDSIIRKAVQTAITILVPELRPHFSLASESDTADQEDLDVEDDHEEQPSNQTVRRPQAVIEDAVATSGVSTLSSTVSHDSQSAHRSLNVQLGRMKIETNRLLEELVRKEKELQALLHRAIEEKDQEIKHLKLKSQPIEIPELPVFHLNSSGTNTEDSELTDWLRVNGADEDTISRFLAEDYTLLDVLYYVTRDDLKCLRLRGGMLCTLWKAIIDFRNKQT
Put plainly: […]PanQinase radiometric kinase assay (Reaction Biology). The class given is biochemical. Conditions: read-out: Residual activities [% of control] / 1(R) 10 μM.

In assay [2] the target is T2, AuroraA (Homo sapiens, UniProt O14965).
T2 construct: gene AURKA
T2 sequence (O14965 1-403): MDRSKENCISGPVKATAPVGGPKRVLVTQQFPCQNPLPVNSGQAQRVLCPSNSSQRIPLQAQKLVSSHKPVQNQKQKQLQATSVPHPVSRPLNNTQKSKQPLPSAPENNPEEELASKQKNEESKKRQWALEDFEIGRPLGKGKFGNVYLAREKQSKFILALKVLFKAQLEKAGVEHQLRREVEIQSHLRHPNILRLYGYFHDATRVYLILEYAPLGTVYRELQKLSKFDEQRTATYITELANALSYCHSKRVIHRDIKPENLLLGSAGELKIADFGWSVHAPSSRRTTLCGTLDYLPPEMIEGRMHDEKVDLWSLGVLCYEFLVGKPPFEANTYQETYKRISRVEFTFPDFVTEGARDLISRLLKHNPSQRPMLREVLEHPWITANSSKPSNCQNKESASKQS
The assay is described as above. The class given is biochemical. Conditions: read-out: Residual activities [% of control] / 1(R) 10 μM.

Assay [3] deals with T1, ASK1. Put plainly: biochemical. Further details: 33PanQinase radiometric kinase activity assay, residual activity in % of control, contract lab Reaction Biology. To be noted: mean of intraexperimental duplicates, n = 1; read-out: Residual activities [% of control] / 1(S) 10 µM.

Regarding `Nc1ccc2ccccc2c1-c1c(N)ccc2ccccc12` [1(R), (R)‐[1,1′‐binaphthalene]‐2,2′‐diamine], the values for the remaining activity at 10 µM in assay [1] and in assay [2] were 90% and 86%, respectively.

For the molecule `Nc1ccc2ccccc2c1-c1c(N)ccc2ccccc12` [1(S), S‐BINAM], the remaining activity at 10 µM in assay [3] is 117%.
